Legend:
[1] = test system: endogenous FXN gene expression in FRDA-iPSC-derived neurons; experiment: FXN mRNA levels in FRDA-iPSC-derived neurons by real-time RT-PCR, normalized to RPL13A; assay type: cell-based, human; conditions: for effect on FXN expression: FRDA-iPSC-derived neurons, treated for 3 weeks, five concentrations, biological duplicates
Protocol: (§1) FIG. 1: Exposure of FRDA-iPSC-derived neurons to [2,6] Naphtyhyridine is the cyclohexyl-[4-(4-phenyl-1-piperazin-1-yl-[2,6]naphthyridin-3-yl)pyridin-2-yl]amine, a chemical inhibitor of PRKD1, leads to an increase in FXN expression while a control compound has no effect. […] FXN mRNA levels were determined by real-time RT-PCR, normalized to RPL13A mRNA levels. *P=0.03.
For quantitative RT-PCR (qRT-PCR) experiments, total RNA was extracted from GM04078, FRDA-4078iBT, and HEK293T-FF2AP cell lines with the Absolutely RNA Microprep Kit (Stratagene). A 1-μg aliquot of total RNA was reverse transcribed with AffinityScript enzyme (Stratagene) using random hexamers according to the manufacturer's instructions. qRT-PCR was performed on a CFX96 Real-Time PCR System (Bio-Rad) using the SsoAdvanced SYBR Green Supermix (Bio-Rad, #172-5264). Relative RNA levels were calculated from CT values according to the ΔCT method and normalized to GAPDH mRNA or 18S rRNA levels. Reprogrammed cells were washed once and total RNA isolated using TRIzol (Life Technologies). After chloroform extraction, RNA was purified using a RNeasy Plus Kit (Qiagen, Germantown, Md.). RNA purity and concentration were verified using an Aligent 2100 Bioanalyzer (Santa Clara, Calif.). […]
Endoderm: Accutase was used for cell dissociation to single cells, which were then plated on matrigel in mTeSR with rock-inhibitor Y27632 (Calbiochem, Darmstadt, Germany) at a density of 100×10^3 per cm^2. […] In order to quantify the efficiency of differentiation into Pax6-expressing neural progenitors, immunostained cultures were generated and the percentage of Pax6-positive and DAPI-positive cells determined in 10 randomly selected microscopic fields. In order to quantify the efficiency of differentiation into β-III Tubulin-expressing neurons, a similar approach was used with cultures previously treated with cytosine-1-β-D-arabinofuranoside to prevent the expansion of neural progenitors. […]

[2] = test system: FRDA-iPSC-derived neurons; experiment: Neuron viability / compound toxicity in FRDA-iPSC-derived neuron cultures; assay type: cell-based, human; conditions: even at 10 μM
Protocol: as §1
Importantly, treatment with the compound of formula (II) led to a 25% increase in FXN mRNA expression in FRDA neurons after only 3 weeks of treatment. […] In addition, neuron viability was not affected by exposure to the compound of formula (II), even at 10 μM.

c1ccc(-c2c(-c3ccnc(NC4CCCCC4)c3)nc(N3CCNCC3)c3ccncc23)cc1 [compound of formula (II), cyclohexyl-[4-(4-phenyl-1-piperazin-1-yl-[2,6]naphthyridin-3-yl)pyridin-2-yl]amine]
increase in FXN mRNA expression ([1]; FRDA neurons, after 3 weeks of treatment): 25% | effect on FXN expression [1]: significant increase | effect on FXN expression ([1]; listed as cyclohexyl-[4-(4-phenyl-1-piperazin-1-yl-[2,6]naphthyridin-3-yl)pyridin-2-yl]ami): increase | neuron viability [2]: not affected

— US20160178610A1, “New screening method for the treatment Friedreich's ataxia” (FRIEDRICH MIESCHER INSTITUTE FOR BIOMEDICAL RESEARCH, priority 2013, published 2016)
